Values belong to the compound of their own block, whether it stands above or below them. The source made the active and inactive calls. The rule behind the calls is not given here.
Assays:
[1] = (§1) Metabolic stability in rat liver microsomes assessed as compound remaining after 60 mins; type: ADME, Microsome; conditions: liver microsomes, read-out: Stability
[2] = (§2) Metabolic stability in rat liver S9 fraction assessed as compound remaining after 60 mins; type: ADME, subcellular; conditions: liver S9 fraction, read-out: Stability
[3] = Oral bioavailability in Sprague-Dawley rat at 10 mg/kg; type: ADME, organism-based; conditions: in vivo
[4] = (§3) Metabolic stability in rat plasma assessed as compound remaining after 60 mins; type: ADME, cell-free; conditions: read-out: Stability
[5] = Initial plasma concentration in Sprague-Dawley rat at 2 mg/kg, iv; type: ADME, organism-based; set-up: dose 2 mg/kg, route intravenous
[6] = biological target: Xanthine dehydrogenase/oxidase (Bos taurus, UniProt P80457)
Chain of Xanthine dehydrogenase/oxidase (P80457 whole entry): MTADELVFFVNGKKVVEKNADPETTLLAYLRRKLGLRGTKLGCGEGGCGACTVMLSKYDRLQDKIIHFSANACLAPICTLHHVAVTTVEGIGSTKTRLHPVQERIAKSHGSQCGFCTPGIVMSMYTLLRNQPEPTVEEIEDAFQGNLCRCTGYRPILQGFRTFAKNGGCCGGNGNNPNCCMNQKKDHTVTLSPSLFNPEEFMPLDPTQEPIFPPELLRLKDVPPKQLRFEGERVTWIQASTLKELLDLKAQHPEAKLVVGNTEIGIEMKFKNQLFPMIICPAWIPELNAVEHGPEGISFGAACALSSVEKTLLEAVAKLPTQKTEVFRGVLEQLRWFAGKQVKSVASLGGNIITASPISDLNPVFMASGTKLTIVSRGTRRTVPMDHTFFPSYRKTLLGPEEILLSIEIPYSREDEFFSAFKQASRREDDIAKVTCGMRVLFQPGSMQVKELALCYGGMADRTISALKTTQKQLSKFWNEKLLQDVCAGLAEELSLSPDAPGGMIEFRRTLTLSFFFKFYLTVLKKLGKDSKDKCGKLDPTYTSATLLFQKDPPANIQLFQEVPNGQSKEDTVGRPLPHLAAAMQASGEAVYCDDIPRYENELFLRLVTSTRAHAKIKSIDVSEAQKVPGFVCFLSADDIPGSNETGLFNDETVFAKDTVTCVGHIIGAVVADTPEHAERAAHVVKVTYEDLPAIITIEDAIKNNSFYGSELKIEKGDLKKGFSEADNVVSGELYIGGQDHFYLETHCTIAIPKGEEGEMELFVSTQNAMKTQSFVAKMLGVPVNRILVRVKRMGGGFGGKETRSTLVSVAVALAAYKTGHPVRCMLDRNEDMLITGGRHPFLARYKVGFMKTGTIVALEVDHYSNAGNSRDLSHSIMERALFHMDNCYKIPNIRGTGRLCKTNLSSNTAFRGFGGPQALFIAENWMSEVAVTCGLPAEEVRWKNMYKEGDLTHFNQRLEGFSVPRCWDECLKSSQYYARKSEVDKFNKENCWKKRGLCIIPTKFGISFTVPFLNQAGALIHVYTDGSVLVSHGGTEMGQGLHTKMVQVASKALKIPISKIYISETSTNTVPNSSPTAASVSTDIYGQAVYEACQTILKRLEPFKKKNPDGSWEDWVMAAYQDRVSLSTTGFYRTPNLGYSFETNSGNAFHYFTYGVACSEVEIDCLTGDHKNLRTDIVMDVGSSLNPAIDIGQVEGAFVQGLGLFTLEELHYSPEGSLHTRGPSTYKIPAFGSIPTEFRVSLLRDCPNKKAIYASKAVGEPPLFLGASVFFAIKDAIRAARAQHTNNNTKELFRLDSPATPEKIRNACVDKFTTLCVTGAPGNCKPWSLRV
Description: Inhibition of bovine xanthine oxidase-mediated uric acid production after 30 mins by spectrophotometric analysis

[7] = tested on: Rattus norvegicus; assay: Tmax in Sprague-Dawley rat assessed as 2-(4-(2-amino-6-hydroxypyrimidin-4-yl)-2-cyanophenoxy)-2-methylpropanoic acid level at 10 mg/kg, po; type: ADME, organism-based; set-up: dose 10 mg/kg, route oral; conditions: in vivo
[8] = Tmax in Sprague-Dawley rat at 10 mg/kg, po; type: ADME, organism-based; set-up: dose 10 mg/kg, route oral; conditions: in vivo
[9] = tested on: Rattus norvegicus; assay: AUClast in Sprague-Dawley rat assessed as 2-(4-(2-amino-6-hydroxypyrimidin-4-yl)-2-cyanophenoxy)-2-methylpropanoic acid level at 10 mg/kg, po; type: ADME, organism-based, Plasma; set-up: time 0 - last, dose 10 mg/kg, route oral; conditions: in vivo
[10] = (§4) Cmax in Sprague-Dawley rat at 10 mg/kg, po; type: ADME, organism-based; set-up: dose 10 mg/kg, route oral; conditions: Sprague-Dawley, in vivo
[11] = tested on: Rattus norvegicus; assay: Cmax in Sprague-Dawley rat assessed as 2-(4-(2-amino-6-hydroxypyrimidin-4-yl)-2-cyanophenoxy)-2-methylpropanoic acid level at 10 mg/kg, po; type: ADME, organism-based; set-up: dose 10 mg/kg, route oral; conditions: in vivo
[12] = AUClast in Sprague-Dawley rat at 10 mg/kg, po; type: ADME, organism-based; set-up: time 0 - last, dose 10 mg/kg, route oral; conditions: plasma
[13] = tested on: Rattus norvegicus; assay: Elimination half life in Sprague-Dawley rat assessed as 2-(4-(2-amino-6-hydroxypyrimidin-4-yl)-2-cyanophenoxy)-2-methylpropanoic acid level at 10 mg/kg, po; type: ADME, organism-based; set-up: dose 10 mg/kg, route oral; conditions: in vivo
[14] = Elimination half life in Sprague-Dawley rat at 10 mg/kg, po; type: ADME, organism-based; set-up: dose 10 mg/kg, route oral; conditions: in vivo, read-out: beta t1/2 (converted)
[15] = tested on: Rattus norvegicus; assay: Tmax in Sprague-Dawley rat assessed as Methyl 4-((4-(2-amino-6-hydroxypyrimidin-4-yl)-2-cyanophenoxy)methyl)cyclohexanecarboxylate level at 10 mg/kg, po; type: ADME, organism-based; set-up: dose 10 mg/kg, route oral; conditions: in vivo
[16] = tested on: Rattus norvegicus; assay: AUClast in Sprague-Dawley rat assessed as Methyl 4-((4-(2-amino-6-hydroxypyrimidin-4-yl)-2-cyanophenoxy)methyl)cyclohexanecarboxylate level at 10 mg/kg, po; type: ADME, organism-based, Plasma; set-up: time 0 - last, dose 10 mg/kg, route oral; conditions: in vivo
[17] = tested on: Rattus norvegicus; assay: Elimination half life in Sprague-Dawley rat assessed as Methyl 4-((4-(2-amino-6-hydroxypyrimidin-4-yl)-2-cyanophenoxy)methyl)cyclohexanecarboxylate level at 10 mg/kg, po; type: ADME, organism-based; set-up: dose 10 mg/kg, route oral; conditions: in vivo
[18] = tested on: Rattus norvegicus; assay: as §4; type: ADME, organism-based; set-up: dose 10 mg/kg, route oral; conditions: in vivo, BLD = below limit of detection
[19] = tested on: Rattus norvegicus; assay: Cmax in Sprague-Dawley rat assessed as Methyl 4-((4-(2-amino-6-hydroxypyrimidin-4-yl)-2-cyanophenoxy)methyl)cyclohexanecarboxylate level at 10 mg/kg, po; type: ADME, organism-based; set-up: dose 10 mg/kg, route oral; conditions: in vivo
[20] = tested on: Rattus norvegicus; assay: Antihyperuricemic activity in rat assessed as reduction in potassium oxonate-induced serum uric acid level at 50 mg/kg, po administered at 1 hr prior to potassium oxonate-challenge measured up to 5 hrs relative to control; type: functional, organism-based; set-up: dose 50 mg/kg
[21] = tested on: Rattus norvegicus; assay: Antihyperuricemic activity in po dosed rat assessed as reduction in potassium oxonate-induced serum uric acid level administered at 1 hr prior to potassium oxonate-challenge measured up to 5 hrs; type: functional
[22] = tested on: Liver microsomes; assay: as §1; type: ADME, Microsome; conditions: microsomes, 1 h
[23] = tested on: Liver; assay: as §2; type: ADME, subcellular; conditions: s9, 1 h
[24] = tested on: Plasma; assay: as §3; type: ADME, cell-free; conditions: 1 h
[25] = Clearance in Sprague-Dawley rat at 2 mg/kg, iv; type: ADME, organism-based; set-up: dose 2 mg/kg, route intravenous; conditions: in vivo
[26] = tested on: Rattus norvegicus; assay: Antihyperuricemic activity in rat assessed as reduction in potassium oxonate-induced serum uric acid level at 30 mg/kg, po administered at 1 hr prior to potassium oxonate-challenge measured up to 5 hrs relative to allopurinol; type: functional; set-up: scale not given: the % may be the effect or the level left
[27] = tested on: Rattus norvegicus; assay: Antihyperuricemic activity in rat assessed as reduction in potassium oxonate-induced serum uric acid level at 10 mg/kg, po administered at 1 hr prior to potassium oxonate-challenge measured up to 5 hrs relative to allopurinol; type: functional; set-up: scale not given: the % may be the effect or the level left
[28] = AUClast in Sprague-Dawley rat at 2 mg/kg, iv; type: ADME, organism-based; set-up: time 0 - last, dose 2 mg/kg, route intravenous; conditions: plasma
[29] = Tmax in Sprague-Dawley rat at 2 mg/kg, iv; type: ADME, organism-based; set-up: dose 2 mg/kg, route intravenous; conditions: in vivo
[30] = Elimination half life in Sprague-Dawley rat at 2 mg/kg, iv; type: ADME, organism-based; set-up: dose 2 mg/kg, route intravenous; conditions: in vivo, read-out: beta t1/2 (converted)
[31] = Volume of distribution in Sprague-Dawley rat at 2 mg/kg, iv; type: ADME, organism-based; set-up: dose 2 mg/kg, route intravenous; conditions: in vivo
[32] = Cmax in Sprague-Dawley rat at 2 mg/kg, iv; type: ADME, organism-based; set-up: dose 2 mg/kg, route intravenous; conditions: in vivo

remaining at 1 h [1]: 91.5% | remaining at 1 h [2]: 65.6% | bioavailability [3]: 8.6% | remaining at 1 h [4]: 96% | C0 [5]: 1360 ng/mL
Structure (SMILES): CC(C)COc1ccc(-c2cc(=O)[nH]c(N)n2)cc1C#N

IC50 [6]: 0.013 µM
Structure (SMILES): CC(C)C(C)Oc1ccc(-c2cc(O)nc(N)n2)cc1C#N (centres undefined)

IC50 [6]: 0.009 µM
Structure (SMILES): COC(=O)c1ccc(COc2ccc(-c3cc(O)nc(N)n3)cc2C#N)cc1

IC50 [6]: 0.007 µM
Structure (SMILES): N#Cc1cc(-c2cc(O)nc(N)n2)ccc1OCc1ccc(F)cc1

Tmax [7]: 4 h | remaining at 1 h [1]: 95.9% | remaining at 1 h [2]: 93.6% | Tmax [8]: 0.75 h | AUClast [9]: 22699.83 ng·h/mL | Cmax [10]: 40 nM | IC50 [6]: 0.015 µM | Cmax [11]: 8460 nM | AUC(0-t) [12]: 44.8 ng·h/mL | beta t1/2 [13]: 11.6 h | remaining at 1 h [4]: 30.2% | half-life [14]: 2.04 h
Structure (SMILES): COC(=O)C(C)(C)COc1ccc(-c2cc(=O)[nH]c(N)n2)cc1C#N

IC50 [6]: 0.01 µM
Structure (SMILES): CCC(CC)COc1ccc(-c2cc(=O)[nH]c(N)n2)cc1C#N

IC50 [6]: 0.16 µM
Structure (SMILES): COc1ccc(-c2cc(O)nc(N)n2)cc1C#N

IC50 [6]: 0.018 µM
Structure (SMILES): N#Cc1cc(-c2cc(=O)[nH]c(N)n2)ccc1OCC1CCC1

IC50 [6]: 0.011 µM
Structure (SMILES): N#Cc1cc(-c2cc(=O)[nH]c(N)n2)ccc1OCc1ccc(F)cc1C(F)(F)F

IC50 [6]: 0.019 µM
Structure (SMILES): CC(C)(C)c1ccc(COc2ccc(-c3cc(=O)[nH]c(N)n3)cc2C#N)cc1

Tmax [8]: 0.5 h | Cmax [10]: 160 nM | IC50 [6]: 0.004 µM | AUC(0-t) [12]: 297 ng·h/mL | remaining at 1 h [4]: 99.7% | half-life [14]: 10.7 h
Structure (SMILES): CC(C)(C)COc1ccc(-c2cc(=O)[nH]c(N)n2)cc1C#N

remaining at 1 h [1]: 0% | remaining at 1 h [2]: 0% | Tmax [15]: 2 h | AUClast [16]: 795.24 ng·h/mL | beta t1/2 [17]: 3.9 h | Cmax [18]: BLD | IC50 [6]: 0.019 µM | Cmax [19]: 340 nM | remaining at 1 h [4]: 0%
Structure (SMILES): COC(=O)C1CCC(COc2ccc(-c3cc(O)nc(N)n3)cc2C#N)CC1 (centres undefined)
Activity [20]: Active

IC50 [6]: 0.4 µM
Structure (SMILES): CC(C)COc1ccc(-c2cc(C(=O)O)nc(N)n2)cc1C#N

remaining at 1 h [1]: 90.2% | remaining at 1 h [2]: 98.9% | Cmax [10]: 6600 nM | IC50 [6]: 0.005 µM | AUC(0-t) [12]: 19500 ng·h/mL | remaining at 1 h [4]: 33.9% | half-life [14]: 4 h
Structure (SMILES): CC(C)(COc1ccc(-c2cc(O)nc(N)n2)cc1C#N)C(=O)O

IC50 [6]: 0.009 µM
Structure (SMILES): N#Cc1cc(-c2cc(O)nc(N)n2)ccc1OCc1ccccc1C(F)(F)F

IC50 [6]: 3.9 µM
Structure (SMILES): CC(C)COc1ccc(-c2cc(C(N)=O)nc(N)n2)cc1C#N

IC50 [6]: 0.05 µM
Structure (SMILES): N#Cc1cc(-c2ccnc(N)n2)ccc1OCC1CCCCC1

Structure (SMILES): COC(=O)C(C)(C)COc1ccc(-c2cc(O)nc(N)n2)cc1C#N
Activity [20]: Active

IC50 [6]: 0.15 µM
Structure (SMILES): N#Cc1cc(-c2ccnc(N)n2)ccc1OCc1ccc(F)cc1

remaining at 1 h [1]: 97.3% | remaining at 1 h [2]: 86.8% | Tmax [8]: 1 h | Cmax [10]: 40 nM | IC50 [6]: 0.01 µM | AUC(0-t) [12]: 109 ng·h/mL | remaining at 1 h [4]: 94% | half-life [14]: 18 h
Structure (SMILES): N#Cc1cc(-c2cc(O)nc(N)n2)ccc1OCC1CCCCC1

remaining at 1 h [1]: 0% | remaining at 1 h [2]: 11% | IC50 [6]: 0.01 µM | remaining at 1 h [4]: 28%
Structure (SMILES): COC(=O)C1CCC(COc2ccc(-c3ccnc(N)n3)cc2C#N)CC1 (centres undefined)
Activity [21]: Active

Stability [22]: Stable | Stability [23]: Stable | IC50 [6]: 0.01 µM | Stability [24]: Stable
Structure (SMILES): N#Cc1cc(-c2ccnc(N)n2)ccc1OCC1CCC(C(=O)O)CC1 (centres undefined)
Activity [21]: Active

IC50 [6]: 0.017 µM
Structure (SMILES): N#Cc1cc(-c2cc(=O)[nH]c(N)n2)ccc1OCc1ccccc1

clearance [25]: 10.7 mL/min/kg | remaining at 1 h [1]: 21.2% | remaining at 1 h [2]: 71.3% | Tmax [8]: 0.75 h | AUC(0-t) [28]: 2990 ng·h/mL | Tmax [29]: 1.8 min | Cmax [10]: 4190 nM | IC50 [6]: 0.08 µM | AUC(0-t) [12]: 2000 ng·h/mL | half-life [30]: 5.96 h | bioavailability [3]: 13.4% | Vd [31]: 5.5 L/kg | Cmax [32]: 9940 nM | remaining at 1 h [4]: 88.4% | C0 [5]: 3720 ng/mL | half-life [14]: 1.35 h
Structure (SMILES): CC(C)COc1ccc(-c2ccnc(N)n2)cc1C#N
Activity [26]: 70% | Activity [27]: 49% | Activity [21]: Dose-dependent effect | ED50 [21]: 10 mg/kg

Structure (SMILES): CC(C)COc1ccc(-c2cc(O)ncn2)cc1C#N
Activity [20]: Active

remaining at 1 h [1]: 49.6% | remaining at 1 h [2]: 13.5% | Tmax [8]: 0.25 h | Cmax [10]: 1150 nM | IC50 [6]: 0.06 µM | AUC(0-t) [12]: 416 ng·h/mL | remaining at 1 h [4]: 90.5% | half-life [14]: 9.88 h
Structure (SMILES): CC(C)COc1ccc(-c2cc(=O)[nH]cn2)cc1C#N

remaining at 1 h [1]: 90.6% | remaining at 1 h [2]: 101% | Tmax [8]: 4 h | Cmax [10]: 50 nM | IC50 [6]: 0.009 µM | AUC(0-t) [12]: 119 ng·h/mL | remaining at 1 h [4]: 106%
Structure (SMILES): N#Cc1cc(-c2cc(=O)[nH]c(N)n2)ccc1OCC1CCC(C(=O)O)CC1 (centres undefined)

IC50 [6]: > 30 µM
Structure (SMILES): Cc1nc(O)cc(-c2ccc(OCC(C)C)c(C#N)c2)n1

IC50 [6]: 0.06 µM
Structure (SMILES): N#Cc1cc(-c2ccnc(N)n2)ccc1OCc1ccccc1C(F)(F)F

IC50 [6]: 0.4 µM
Structure (SMILES): N#Cc1cc(-c2ccnc(N)n2)ccc1OCC1CCC1

IC50 [6]: 0.08 µM
Structure (SMILES): N#Cc1cc(-c2ccnc(N)n2)ccc1OCc1ccc(F)cc1C(F)(F)F

IC50 [6]: 0.005 µM
Structure (SMILES): N#Cc1cc(-c2cc(=O)[nH]c(N)n2)ccc1OCc1ccc(C(=O)O)cc1

— ChEMBL document CHEMBL2321685, “Lead optimization of isocytosine-derived xanthine oxidase inhibitors” (Bioorg Med Chem Lett, 2013)
